Laboratory results as given in patent US20260226048A1, “MULTI-CYCLIC IRAK AND FLT3 INHIBITING COMPOUNDS AND USES THEREOF” (CHILDREN'S HOSPITAL MEDICAL CENTER, priority 2023, published 2026).
Residue numbers refer to the chain shown, from its start.

Legend:
[1] = molecular target: T1, FLT3 D835Y (Homo sapiens, UniProt P36888, D835Y); experiment: DiscoverX KINOMEscan competition binding assay, FLT3 D835Y; conditions: 11-point 3-fold dilution
T1 construct: purchased DiscoverX (KINOMEscan); host or cells: E. coli BL21-derived host (T7 phage) or HEK-293
T1 sequence (P36888 27-993 D835Y): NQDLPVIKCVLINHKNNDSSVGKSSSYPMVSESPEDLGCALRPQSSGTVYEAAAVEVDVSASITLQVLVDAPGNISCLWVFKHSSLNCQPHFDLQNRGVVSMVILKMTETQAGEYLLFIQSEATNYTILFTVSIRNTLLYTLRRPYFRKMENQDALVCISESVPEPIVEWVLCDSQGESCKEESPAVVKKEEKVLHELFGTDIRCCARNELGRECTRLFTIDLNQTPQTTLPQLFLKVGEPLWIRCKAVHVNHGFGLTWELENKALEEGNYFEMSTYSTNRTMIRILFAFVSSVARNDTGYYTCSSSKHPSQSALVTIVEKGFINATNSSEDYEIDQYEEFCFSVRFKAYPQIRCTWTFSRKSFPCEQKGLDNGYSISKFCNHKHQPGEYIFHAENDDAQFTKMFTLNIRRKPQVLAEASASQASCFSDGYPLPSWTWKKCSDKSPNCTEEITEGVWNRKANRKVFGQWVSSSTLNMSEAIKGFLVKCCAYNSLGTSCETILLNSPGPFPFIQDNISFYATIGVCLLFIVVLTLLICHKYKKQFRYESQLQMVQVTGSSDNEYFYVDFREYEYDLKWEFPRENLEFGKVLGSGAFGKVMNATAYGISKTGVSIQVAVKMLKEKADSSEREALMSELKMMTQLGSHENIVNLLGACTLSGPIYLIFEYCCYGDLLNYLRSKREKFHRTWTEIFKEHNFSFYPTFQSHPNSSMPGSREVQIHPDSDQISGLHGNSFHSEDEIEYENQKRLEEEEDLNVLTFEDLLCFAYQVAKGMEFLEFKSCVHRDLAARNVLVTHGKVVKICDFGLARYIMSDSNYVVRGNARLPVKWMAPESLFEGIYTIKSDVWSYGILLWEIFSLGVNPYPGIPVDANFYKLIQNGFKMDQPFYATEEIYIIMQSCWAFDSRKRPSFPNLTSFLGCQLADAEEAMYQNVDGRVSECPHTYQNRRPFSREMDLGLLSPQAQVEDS
Excerpt: (§1) […]. […] As a result, the data report thermodynamic interaction affinities (Kd values), rather than IC50 values that are dependent on ATP concentrations. The assay uses a DNA-tagged version of the protein kinase, and an immobilized ligand bound to a solid support. Compounds that directly or indirectly prevent kinase binding to the immobilized ligand reduce the amount of kinase captured on the solid support, which is detected using an ultra-sensitive qPCR method. Affinity constants reported from the assay have been reported to be independent of the immobilized ligand used that is coupled to the solid support (See supplemental information in Fabian, M. A. et. al., (2005) Nat. Biotechnol. 23, 329-336; Wodicka, L. M. et. al., (2010) Chem. Biol. 17, 1241-1249.)
(§2) Kinase-tagged T7 phage strains were prepared in an E. coli host derived from the BL21 strain. E. coli were grown to log-phase and infected with T7 phage and incubated with shaking at 32° C. until lysis. The lysates were centrifuged and filtered to remove cell debris. The remaining kinases were produced in HEK-293 cells and subsequently tagged with DNA for qPCR detection. Streptavidin-coated magnetic beads were treated with biotinylated small molecule ligands for 30 minutes at room temperature to generate affinity resins for kinase assays. The liganded beads were blocked with excess biotin and washed with blocking buffer (SeaBlock (Pierce), 1% BSA, 0.05% Tween 20, 1 mM DTT) to remove unbound ligand and to reduce non-specific binding. […] Test compounds were prepared as 111× stocks in 100% DMSO. Kds were determined using an 11-point 3-fold compound dilution series with three DMSO control points. All compounds for Kd measurements are distributed by acoustic transfer (non-contact dispensing) in 100% DMSO. The compounds were then diluted directly into the assays such that the final concentration of DMSO was 0.9%. All reactions were performed in polypropylene 384-well plates. Each was a final volume of 0.02 mL. […] The kinase concentration in the eluates was measured by qPCR.
(§3) Binding constants (Kds) were calculated with a standard dose-response curve using the Hill equation. The Hill Slope was set to −1. Curves were fitted using a non-linear least square fit with the Levenberg-Marquardt algorithm.

[2] = molecular target: T2, FLT3 R834Q (Homo sapiens, UniProt P36888, R834Q); experiment: DiscoverX KINOMEscan competition binding assay, FLT3 R834Q; conditions: 11-point 3-fold dilution
T2 construct: purchased DiscoverX (KINOMEscan); host or cells: E. coli BL21-derived host (T7 phage) or HEK-293
T2 sequence (P36888 27-993 R834Q): T1 sequence (P36888 27-993 D835Y) with R808Q, Y809D
Excerpt: as §1, §2, §3

COc1cc2ncc(-c3nc(N[C@H]4CNCC[C@@H]4F)ncc3F)n2nc1C1CC1 [Compound 1a, 4-(6-cyclopropyl-7-methoxyimidazo[1,2-b]pyridazin-3-yl)-5-fluoro-N-((3S,4S)-4-fluoropiperidin-3-yl)pyrimidin-2-amine]
Kd [1]: 0.23 nM
Kd [2]: < 0.17 nM

FC(F)COc1cc2ncc(-c3ccnc(N[C@H]4CNCC[C@@H]4F)n3)n2nc1C1CC1 [Compound 4a, 4-(6-cyclopropyl-7-(2,2-difluoroethoxy)imidazo[1,2-b]pyridazin-3-yl)-N-((3 S,4S)-4-fluoropiperidin-3-yl)pyrimidin-2-amine]
Kd [1]: 0.42 nM
Kd [2]: 0.69 nM

COc1cc2ncc(-c3nc(N[C@H]4CNCC[C@@H]4F)ncc3F)n2nc1C(C)(C)O [Compound 45a, 2-(3-(5-fluoro-2-(((3S,4S)-4-fluoropiperidin-3-yl)amino)pyrimidin-4-yl)-7-methoxyimidazo[1,2-b]pyridazin-6-yl)propan-2-ol]
Kd [1]: 0.2 nM
Kd [2]: 5.9 nM

CC(C)(O)c1ccc2ncc(-c3nc(N[C@H]4CNCC[C@@H]4F)ncc3F)n2c1 [Compound 46a, 2-(3-(5-fluoro-2-(((3S,4S)-4-fluoropiperidin-3-yl)amino)pyrimidin-4-yl)imidazo[1,2-a]pyridin-6-yl)propan-2-ol]
Kd [1]: 0.26 nM
Kd [2]: 4.4 nM

COc1cc2ncc(-c3nc(N[C@H]4CNCC[C@@H]4F)ncc3F)n2nc1C1COC1 [Compound 92a, 5-fluoro-N-((3S,4S)-4-fluoropiperidin-3-yl)-4-(7-methoxy-6-(oxetan-3-yl)imidazo[1,2-b]pyridazin-3-yl)pyrimidin-2-amine]
Kd [1]: < 0.17 nM
Kd [2]: 0.77 nM

CC(C)(O)c1cn2c(-c3nc(N[C@H]4CNCC[C@@H]4F)ncc3F)cnc2cn1 [Compound 100a, 2-(3-(5-fluoro-2-(((3S,4S)-4-fluoropiperidin-3-yl)amino)pyrimidin-4-yl)imidazo[1,2-a]pyrazin-6-yl)propan-2-ol]
Kd [1]: 2.4 nM
Kd [2]: 40 nM

COc1cc2ncc(-c3nc(N[C@H]4CNCC[C@@H]4F)ncc3F)n2nc1N1CCCS1(=O)=O [Compound 112a, 2-(3-(5-fluoro-2-(((3S,4S)-4-fluoropiperidin-3-yl)amino)pyrimidin-4-yl)-7-methoxyimidazo[1,2-b]pyridazin-6-yl)isothiazolidine 1,1-dioxide]
Kd [1]: < 0.17 nM
Kd [2]: 0.28 nM
